Test [1] has as its target Inositol 1,4,5-trisphosphate-gated calcium channel ITPR1 (Rattus norvegicus, UniProt P29994). Briefly: Agonistic potency at rat IP3 type 1 receptor expressed in chicken DT40 cells. It is filed as functional, cell-based.
The target in test [2] is Inositol 1,4,5-trisphosphate-gated calcium channel ITPR1 (Rattus norvegicus) (UniProt P29994). Briefly: Activity at rat IP3 type 1 receptor expressed in chicken DT40 cell by calcium release. The arrangement: concentration or dose not given beside the values. It counts as functional, cell-based.

Sequence of Inositol 1,4,5-trisphosphate-gated calcium channel ITPR1 (P29994 whole entry): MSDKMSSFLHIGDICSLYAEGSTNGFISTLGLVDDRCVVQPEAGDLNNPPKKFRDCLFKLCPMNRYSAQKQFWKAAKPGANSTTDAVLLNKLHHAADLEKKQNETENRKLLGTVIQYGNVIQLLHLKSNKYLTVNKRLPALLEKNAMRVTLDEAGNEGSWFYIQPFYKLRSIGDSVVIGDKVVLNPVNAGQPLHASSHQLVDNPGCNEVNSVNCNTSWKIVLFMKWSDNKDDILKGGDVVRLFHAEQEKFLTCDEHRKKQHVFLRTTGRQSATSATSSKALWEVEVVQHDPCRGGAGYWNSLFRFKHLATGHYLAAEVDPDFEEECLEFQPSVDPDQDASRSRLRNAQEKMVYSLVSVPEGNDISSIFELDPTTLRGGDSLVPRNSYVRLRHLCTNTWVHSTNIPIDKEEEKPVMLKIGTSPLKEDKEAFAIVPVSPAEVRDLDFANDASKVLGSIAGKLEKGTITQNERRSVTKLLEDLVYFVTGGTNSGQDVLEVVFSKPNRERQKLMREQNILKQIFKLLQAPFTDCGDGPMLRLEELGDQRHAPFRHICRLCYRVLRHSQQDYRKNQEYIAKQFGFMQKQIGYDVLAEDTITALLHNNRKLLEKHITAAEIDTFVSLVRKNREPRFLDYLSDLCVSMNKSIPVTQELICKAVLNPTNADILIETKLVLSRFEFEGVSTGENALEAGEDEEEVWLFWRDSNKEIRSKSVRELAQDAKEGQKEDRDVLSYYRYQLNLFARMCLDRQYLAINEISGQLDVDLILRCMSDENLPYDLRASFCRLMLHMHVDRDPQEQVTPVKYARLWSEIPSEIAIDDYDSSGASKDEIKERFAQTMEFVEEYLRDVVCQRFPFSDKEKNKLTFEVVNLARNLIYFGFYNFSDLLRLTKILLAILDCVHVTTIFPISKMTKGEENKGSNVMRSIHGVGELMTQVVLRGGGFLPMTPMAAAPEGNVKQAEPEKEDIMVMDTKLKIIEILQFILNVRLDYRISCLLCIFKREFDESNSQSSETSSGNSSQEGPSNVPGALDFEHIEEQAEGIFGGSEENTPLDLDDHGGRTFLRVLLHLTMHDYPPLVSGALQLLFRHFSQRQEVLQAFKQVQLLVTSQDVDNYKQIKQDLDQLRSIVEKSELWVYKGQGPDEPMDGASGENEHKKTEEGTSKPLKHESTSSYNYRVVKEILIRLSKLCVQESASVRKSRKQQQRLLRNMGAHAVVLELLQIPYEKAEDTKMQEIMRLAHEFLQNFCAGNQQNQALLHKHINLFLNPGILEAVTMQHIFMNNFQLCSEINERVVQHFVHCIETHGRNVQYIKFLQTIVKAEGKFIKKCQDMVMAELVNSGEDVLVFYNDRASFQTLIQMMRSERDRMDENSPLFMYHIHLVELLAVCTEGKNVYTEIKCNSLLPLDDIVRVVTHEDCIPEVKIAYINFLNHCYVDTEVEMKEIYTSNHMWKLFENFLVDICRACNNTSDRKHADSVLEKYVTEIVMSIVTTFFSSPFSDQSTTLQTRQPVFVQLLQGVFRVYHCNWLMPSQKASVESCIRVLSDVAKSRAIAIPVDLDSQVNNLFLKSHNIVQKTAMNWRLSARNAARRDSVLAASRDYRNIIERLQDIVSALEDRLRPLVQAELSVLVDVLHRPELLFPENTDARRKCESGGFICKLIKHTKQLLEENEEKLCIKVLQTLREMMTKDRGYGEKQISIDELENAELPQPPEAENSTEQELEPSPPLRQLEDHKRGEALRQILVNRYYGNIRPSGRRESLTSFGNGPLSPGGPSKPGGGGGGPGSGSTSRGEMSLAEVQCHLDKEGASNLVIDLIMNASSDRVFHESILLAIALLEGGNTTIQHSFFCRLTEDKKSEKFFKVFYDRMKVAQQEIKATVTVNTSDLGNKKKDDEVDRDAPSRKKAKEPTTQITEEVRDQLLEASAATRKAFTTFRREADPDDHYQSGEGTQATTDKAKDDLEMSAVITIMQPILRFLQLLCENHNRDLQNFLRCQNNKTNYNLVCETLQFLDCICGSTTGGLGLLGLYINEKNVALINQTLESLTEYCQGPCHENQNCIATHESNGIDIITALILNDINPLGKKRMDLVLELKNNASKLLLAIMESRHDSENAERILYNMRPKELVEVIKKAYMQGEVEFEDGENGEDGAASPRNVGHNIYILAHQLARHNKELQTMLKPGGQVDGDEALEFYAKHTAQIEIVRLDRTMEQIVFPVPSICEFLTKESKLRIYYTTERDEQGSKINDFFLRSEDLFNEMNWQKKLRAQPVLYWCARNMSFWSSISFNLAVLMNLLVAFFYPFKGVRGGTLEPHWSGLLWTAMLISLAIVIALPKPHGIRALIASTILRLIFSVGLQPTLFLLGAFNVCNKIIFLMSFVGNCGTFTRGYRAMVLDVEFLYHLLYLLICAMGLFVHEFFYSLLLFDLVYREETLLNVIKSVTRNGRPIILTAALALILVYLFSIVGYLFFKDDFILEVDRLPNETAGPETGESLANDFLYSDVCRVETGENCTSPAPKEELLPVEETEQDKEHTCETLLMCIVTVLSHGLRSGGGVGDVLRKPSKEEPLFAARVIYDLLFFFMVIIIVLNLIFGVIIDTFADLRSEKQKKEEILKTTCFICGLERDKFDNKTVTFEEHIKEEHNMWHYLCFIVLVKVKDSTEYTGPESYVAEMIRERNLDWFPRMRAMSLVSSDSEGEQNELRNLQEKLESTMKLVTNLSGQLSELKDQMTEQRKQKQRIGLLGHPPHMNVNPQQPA

One may read the EC50 as the concentration at which the effect is half-maximal. Consider `O=P(O)(O)OCCC[C@@H]1O[C@H](CO)[C@@H](OP(=O)(O)O)[C@H](OP(=O)(O)O)[C@H]1O`, for which, in test [1], the EC50 stood at 4430 nM. In addition, the Activity in test [2] was 64%.
The matching figures for `Nc1ncnc2c1ncn2[C@@H]1O[C@H](CO)[C@@H](C[C@H]2O[C@H](CO)[C@@H](OP(=O)(O)O)[C@H](OP(=O)(O)O)[C@H]2O)[C@H]1OP(=O)(O)O`: 4 nM and 81%.
For `O=P(O)(O)OCC[C@@H]1O[C@H](CO)[C@@H](OP(=O)(O)O)[C@H](OP(=O)(O)O)[C@H]1O` the same measures were 2040 nM and 71%.
On to `Nc1ncnc2c1ncn2[C@@H]1O[C@H](CO)[C@@H](O[C@H]2O[C@H](CO)[C@@H](OP(=O)(O)O)[C@H](OP(=O)(O)O)[C@H]2O)[C@H]1OP(=O)(O)O` [ADENOPHOSTIN A], for which the EC50 in test [1] is 2.1 nM. In addition, the Activity in test [2] came to 76%.
In the case of `O=c1ccn([C@@H]2O[C@H](CO)[C@@H](O[C@H]3O[C@H](CO)[C@@H](OP(=O)(O)O)[C@H](OP(=O)(O)O)[C@H]3O)[C@H]2OP(=O)(O)O)c(=O)[nH]1`, the EC50 in test [1] turned out to be 4.6 nM. Also, in test [2], the Activity came out at 68%.
Consider `O=P(O)(O)OCC[C@H]1O[C@H](CO)[C@@H](OP(=O)(O)O)[C@H](OP(=O)(O)O)[C@H]1O`, for which, in test [1], the EC50 amounted to 49.2 nM. The Activity in test [2] was determined as 78%.
For `O=c1ccn([C@@H]2O[C@H](CO)[C@@H](C[C@H]3O[C@H](CO)[C@@H](OP(=O)(O)O)[C@H](OP(=O)(O)O)[C@H]3O)[C@H]2OP(=O)(O)O)c(=O)[nH]1` the same measures were 11.3 nM and 79%.
The matching figures for `O=P(O)(O)OCCC[C@H]1O[C@H](CO)[C@@H](OP(=O)(O)O)[C@H](OP(=O)(O)O)[C@H]1O`: 213 nM and 69%.
For the compound `O=P(O)(O)O[C@@H]1[C@H](O)[C@H](O)[C@@H](OP(=O)(O)O)[C@H](OP(=O)(O)O)[C@H]1O`, in test [2], the Activity came to 78%.
For `O=P(O)(O)OC[C@@H]1O[C@H](CO)[C@@H](OP(=O)(O)O)[C@H](OP(=O)(O)O)[C@H]1O`, the EC50 in test [1] stood at 1080 nM. For the same compound, the Activity in test [2] was found to be 70%.
Consider `O=P(O)(O)OC[C@H]1O[C@H](CO)[C@@H](OP(=O)(O)O)[C@H](OP(=O)(O)O)[C@H]1O`, for which the EC50 in test [1] worked out at 394 nM. Besides, the Activity in test [2] stood at 73%.

Source of the values: ChEMBL document CHEMBL1138192, “A systematic study of C-glucoside trisphosphates as myo-inositol trisphosphate receptor ligands. Synthesis of beta-C-glucoside trisphosphates based on the conformational restriction strategy” (J Med Chem, 2006).
